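Exposure lasted 48 hours, with cells grown in 96-well plates and compounds tested at five concentrations. GI50 marks 50% less growth. TGI: concentration producing complete growth inhibition.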
What follows are compounds tested on NCI-H226 lung (assay: inhibition of tumour cell growth, NCI panel, 48 h).
In the case of `CCCCCCCCCCCCCC(=O)OCC(C[As](=O)(O)O)OC(=O)CCCCCCCCCCCCC` (configuration not stated), the TGI is reported as > 100 µM. For `O=C(CCN(C(=O)O)S(=O)(=O)c1ccc(NC(=O)c2ccccc2)cc1)Nc1ccccc1`, the TGI was > 100 µM. For `N#CN/C(N)=N/CO`, the TGI was > 100 µM.

These compounds were tested on M19-MEL melanoma (assay: inhibition of tumour cell growth, NCI panel, 48 h).
`CC(C)CCC1CC2C(=O)N(c3ccccc3)C(=O)C2c2[nH]c3ccccc3c21` (configuration not stated) showed a TGI of 20 µM. In the case of `O=C(CCN(C(=O)O)S(=O)(=O)c1ccc(NC(=O)c2ccccc2)cc1)Nc1ccccc1`, the TGI is reported as > 100 µM. `N#CN/C(N)=N/CO` was tested, and the TGI was > 100 µM.

Each compound was assayed on MOLT-4 leukemia (assay: inhibition of tumour cell growth, NCI panel, 48 h).
`N.N.N.N.O=C([O-])CCl.O=C([O-])CCl.[Co+3].[O-][Cl+3]([O-])([O-])[O-]` was tested, and the GI50 was > 100 µM and the TGI was > 100 µM. With `COC(=O)C1=C(OC(=O)/C(=C/c2ccc(Cl)cc2)c2ccc(Cl)cc2)C(C(=O)OC)[C@@]2(O)[C@@H](C(=O)OC)[C@H](C)C[C@@H]1[C@@H]2C(=O)OC` (some centres not stated) the TGI was 98.8 µM. Compound `CC(C)CCC1CC2C(=O)N(c3ccccc3)C(=O)C2c2[nH]c3ccccc3c21` (configuration not stated) has a TGI of 17.3 µM. In the case of `CCCCCCCCCCCCCC(=O)OCC(C[As](=O)(O)O)OC(=O)CCCCCCCCCCCCC` (configuration not stated), the TGI is reported as > 100 µM. For `O=C(CCN(C(=O)O)S(=O)(=O)c1ccc(NC(=O)c2ccccc2)cc1)Nc1ccccc1`, the TGI was > 85.3 µM. For `N#CN/C(N)=N/CO`, the TGI was > 100 µM.

The compounds below were run on HCT-15 colon (assay: inhibition of tumour cell growth, NCI panel, 48 h).
In the case of `N.N.N.N.O=C([O-])CCl.O=C([O-])CCl.[Co+3].[O-][Cl+3]([O-])([O-])[O-]`, the GI50 is reported as > 100 µM and the TGI is reported as > 100 µM. `COC(=O)C1=C(OC(=O)/C(=C/c2ccc(Cl)cc2)c2ccc(Cl)cc2)C(C(=O)OC)[C@@]2(O)[C@@H](C(=O)OC)[C@H](C)C[C@@H]1[C@@H]2C(=O)OC` (some centres not stated) was tested, and the TGI was > 100 µM. With `CC(C)CCC1CC2C(=O)N(c3ccccc3)C(=O)C2c2[nH]c3ccccc3c21` (configuration not stated) the TGI was 13.4 µM. In the case of `CCCCCCCCCCCCCC(=O)OCC(C[As](=O)(O)O)OC(=O)CCCCCCCCCCCCC` (configuration not stated), the TGI is reported as > 100 µM. With `O=C(CCN(C(=O)O)S(=O)(=O)c1ccc(NC(=O)c2ccccc2)cc1)Nc1ccccc1` the TGI was > 75.2 µM. For `N#CN/C(N)=N/CO`, the TGI was > 56.9 µM.

The compounds below were run on KM12 colon (assay: inhibition of tumour cell growth, NCI panel, 48 h).
`N.N.N.N.O=C([O-])CCl.O=C([O-])CCl.[Co+3].[O-][Cl+3]([O-])([O-])[O-]` was tested, and the GI50 was > 100 µM and the TGI was > 100 µM. With `COC(=O)C1=C(OC(=O)/C(=C/c2ccc(Cl)cc2)c2ccc(Cl)cc2)C(C(=O)OC)[C@@]2(O)[C@@H](C(=O)OC)[C@H](C)C[C@@H]1[C@@H]2C(=O)OC` (some centres not stated) the TGI was > 100 µM. `CC(C)CCC1CC2C(=O)N(c3ccccc3)C(=O)C2c2[nH]c3ccccc3c21` (configuration not stated) gave a TGI of 14.8 µM. `CCCCCCCCCCCCCC(=O)OCC(C[As](=O)(O)O)OC(=O)CCCCCCCCCCCCC` (configuration not stated) was tested, and the TGI was > 100 µM. `O=C(CCN(C(=O)O)S(=O)(=O)c1ccc(NC(=O)c2ccccc2)cc1)Nc1ccccc1` was tested, and the TGI was > 100 µM. `N#CN/C(N)=N/CO` was tested, and the TGI was > 55.2 µM.

Each compound was assayed on HCC-2998 colon (assay: inhibition of tumour cell growth, NCI panel, 48 h).
For `N.N.N.N.O=C([O-])CCl.O=C([O-])CCl.[Co+3].[O-][Cl+3]([O-])([O-])[O-]`, the GI50 was > 100 µM and the TGI was > 100 µM. In the case of `COC(=O)C1=C(OC(=O)/C(=C/c2ccc(Cl)cc2)c2ccc(Cl)cc2)C(C(=O)OC)[C@@]2(O)[C@@H](C(=O)OC)[C@H](C)C[C@@H]1[C@@H]2C(=O)OC` (some centres not stated), the TGI is reported as > 100 µM. Work on `CC(C)CCC1CC2C(=O)N(c3ccccc3)C(=O)C2c2[nH]c3ccccc3c21` (configuration not stated) yielded a TGI of 11.2 µM. For `CCCCCCCCCCCCCC(=O)OCC(C[As](=O)(O)O)OC(=O)CCCCCCCCCCCCC` (configuration not stated), the TGI was > 100 µM. For `O=C(CCN(C(=O)O)S(=O)(=O)c1ccc(NC(=O)c2ccccc2)cc1)Nc1ccccc1`, the TGI was > 100 µM. With `N#CN/C(N)=N/CO` the TGI was > 100 µM.

These compounds were tested on NCI-H23 lung (assay: inhibition of tumour cell growth, NCI panel, 48 h).
For `N.N.N.N.O=C([O-])CCl.O=C([O-])CCl.[Co+3].[O-][Cl+3]([O-])([O-])[O-]`, the GI50 was > 100 µM and the TGI was > 100 µM. `COC(=O)C1=C(OC(=O)/C(=C/c2ccc(Cl)cc2)c2ccc(Cl)cc2)C(C(=O)OC)[C@@]2(O)[C@@H](C(=O)OC)[C@H](C)C[C@@H]1[C@@H]2C(=O)OC` (some centres not stated) was tested, and the TGI was > 100 µM. Work on `CC(C)CCC1CC2C(=O)N(c3ccccc3)C(=O)C2c2[nH]c3ccccc3c21` (configuration not stated) yielded a TGI of 12.9 µM. `CCCCCCCCCCCCCC(=O)OCC(C[As](=O)(O)O)OC(=O)CCCCCCCCCCCCC` (configuration not stated) was tested, and the TGI was > 100 µM. `O=C(CCN(C(=O)O)S(=O)(=O)c1ccc(NC(=O)c2ccccc2)cc1)Nc1ccccc1` was tested, and the TGI was > 100 µM. `N#CN/C(N)=N/CO` was tested, and the TGI was > 100 µM.

Each compound was assayed on OVCAR-5 ovarian (assay: inhibition of tumour cell growth, NCI panel, 48 h).
`N.N.N.N.O=C([O-])CCl.O=C([O-])CCl.[Co+3].[O-][Cl+3]([O-])([O-])[O-]` was tested, and the GI50 was > 100 µM and the TGI was > 100 µM. `COC(=O)C1=C(OC(=O)/C(=C/c2ccc(Cl)cc2)c2ccc(Cl)cc2)C(C(=O)OC)[C@@]2(O)[C@@H](C(=O)OC)[C@H](C)C[C@@H]1[C@@H]2C(=O)OC` (some centres not stated) was tested, and the TGI was > 100 µM. `CC(C)CCC1CC2C(=O)N(c3ccccc3)C(=O)C2c2[nH]c3ccccc3c21` (configuration not stated) gave a TGI of 31.4 µM. `O=C(CCN(C(=O)O)S(=O)(=O)c1ccc(NC(=O)c2ccccc2)cc1)Nc1ccccc1` was tested, and the TGI was > 100 µM. For `N#CN/C(N)=N/CO`, the TGI was > 100 µM.
